Laboratory results: patent US20050113420A1, “Methionine aminopeptidase inhibitor” (priority 2002, published 2005)

Key:
EcMetAP = biological target: T1, EcMetAP (Escherichia coli, UniProt P0AE18); experiment: EcMetAP inhibition, Met-S-C-Phe thiopeptolide/DTNB assay at 412 nm; format: biochemical, E. coli; settings: for IC50: Co-loaded enzyme, estimated IC50 at eight inhibitor concentrations, read-out: IC50(μM) EMetAP
T1 construct: made in house; host or cells: E. coli
Source text: EcMetAP was cloned and overexpressed in E. coli, and purified by (NH4)2SO4 precipitation and Q-Sepharose column separation to give apo-EcMetAP.
(§1) Hydrolysis of the synthesized Met-S-C-Phe thiopeptolide substrate generates a free thiol group, which reacts with excessive DTNB instantly to produce a highly chromogenic product, 3-carboxyl-4-nitrothiophenol (ε412=13,600 M^−1cm^−1). Therefore, the enzymatic reaction catalyzed by MetAP can be continuously monitored at 412 nm on a SpectraMAX 340 microplate reader.
(§2) Employed conventional screening method (Anal Biochem. 2000, 280: 159-65)
(§3) All the compounds were initially screened at the multiple concentrations 2 μg/mL, 20 μg/mL, 100 μg/mL. When the inhibitory activities of the compounds were larger than 50%, their estimated IC50 value were determinated at eight inhibitor concentrations.

hMetAP1 = hMetAP1 (Homo sapiens, UniProt P53582); experiment: hMetAP1 inhibition; format: biochemical
Source text: as §1, §2, §3

[1] = biological target: type 2 methionine aminopeptidase (Homo sapiens, UniProt P50579); settings: covalent binding inhibitors; cited from earlier work
EcMetAP1 = EcMetAP1 (Escherichia coli, UniProt P0AE18); settings: read-out: IC50 EcMetAP1; cited from earlier work
Sequence of EcMetAP1 (P0AE18 whole entry): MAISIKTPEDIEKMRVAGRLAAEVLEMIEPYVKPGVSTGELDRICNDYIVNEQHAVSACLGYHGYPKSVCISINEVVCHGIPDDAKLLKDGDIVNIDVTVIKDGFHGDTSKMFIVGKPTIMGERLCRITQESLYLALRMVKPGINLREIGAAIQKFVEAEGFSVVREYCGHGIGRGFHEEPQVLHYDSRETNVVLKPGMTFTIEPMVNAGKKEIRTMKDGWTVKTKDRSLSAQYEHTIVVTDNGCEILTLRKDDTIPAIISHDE

T1 sequence (P0AE18 whole entry): as above
Sequence of type 2 methionine aminopeptidase (P50579 whole entry): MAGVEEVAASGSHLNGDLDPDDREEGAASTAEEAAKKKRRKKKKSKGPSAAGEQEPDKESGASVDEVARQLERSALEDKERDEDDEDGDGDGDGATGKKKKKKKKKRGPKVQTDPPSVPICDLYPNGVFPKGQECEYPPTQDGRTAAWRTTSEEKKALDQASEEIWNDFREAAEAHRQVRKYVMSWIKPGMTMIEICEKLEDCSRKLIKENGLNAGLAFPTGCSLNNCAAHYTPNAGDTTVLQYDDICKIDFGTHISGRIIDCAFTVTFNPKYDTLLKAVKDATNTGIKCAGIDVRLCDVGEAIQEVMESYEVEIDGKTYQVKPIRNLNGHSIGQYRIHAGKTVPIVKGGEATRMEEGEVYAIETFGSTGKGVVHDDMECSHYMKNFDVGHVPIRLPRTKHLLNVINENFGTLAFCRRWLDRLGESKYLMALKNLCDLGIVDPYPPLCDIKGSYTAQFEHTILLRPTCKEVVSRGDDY

Compound | IC50 (EcMetAP) [µM] | IC50 (hMetAP1) [µM] | further results
Nc1ccccc1C(=O)Nc1nccs1 [Compound 7] | – | – | inhibition at 20 µg/mL (EcMetAP; read-out: inhibition of EMetAP): 30%
O=C(Nc1nccs1)c1cc(Cl)ccn1 [Compound 16] | 4.84 | – | –
O=C(Nc1ncc(Br)s1)c1ccccn1 [Compound 17] | 6 | – | –
O=C(Nc1nccs1)c1ccc2ccccc2n1 [Compound 27] | 51 | – | –
COc1ccnc(C(=O)Nc2nccs2)c1 [Compound 30] | 9.22 | – | –
O=C(Nc1nccs1)c1ncccc1O [Compound 31] | 2.33 | – | –
O=C(Nc1nccs1)c1cccc(CO)n1 [Compound 32] | 5.82 | – | –
CC(=O)Oc1cccnc1C(=O)Nc1nccs1 [Compound 34] | 8.2 | 29 | –
COc1cccnc1C(=O)Nc1nccs1 [Compound 35] | 4.49 | 20.9 | –
O=C(Oc1cccnc1C(=O)Nc1nccs1)c1ccccc1 [Compound 36] | 1.1 | 28.7 | –
COc1ccccc1C(=O)Oc1cccnc1C(=O)Nc1nccs1 [Compound 37] | 1.9 | 15.4 | –
O=C(Oc1cccnc1C(=O)Nc1nccs1)c1cccc([N+](=O)[O-])c1 [Compound 41] | 1.91 | 7.3 | –
COc1ccccc1/C=C/C(=O)Oc1cccnc1C(=O)Nc1nccs1 [Compound 44] | 1.8 | – | –
O=C(Oc1cccnc1C(=O)Nc1nccs1)c1ccc(F)c(Br)c1 [Compound 45] | 1.35 | 17.4 | –
O=C(Oc1cccnc1C(=O)Nc1nccs1)c1ccc(F)cc1 [Compound 46] | 1.31 | 7 | –
O=C(Nc1nccs1)c1ncccc1OCc1ccccc1 [Compound 47] | 5.31 | 7.8 | –
Nc1cccnc1C(=O)Nc1nccs1 [Compound 50] | 5.56 | 11 | –
O=C(Nc1cccnc1C(=O)Nc1nccs1)c1ccccc1 [Compound 51] | 0.14 | – | –
CC(C)(C)OC(=O)Nc1cccnc1C(=O)Nc1nccs1 [Compound 52] | 1.25 | – | –
O=C(Nc1cccnc1C(=O)Nc1nccs1)c1ccc(F)cc1 [Compound 53] | 0.05 | – | –
Cc1nc(C(=O)Nc2nccs2)cs1 [Compound 55] | 0.4 | – | –
CO[C@@H]1[C@H](OC(=O)NC(=O)CCl)CC[C@]2(CO2)[C@H]1[C@@]1(C)O[C@@H]1CC=C(C)C [TNP-470] | – | – | IC50 MetAPs [1]: in the nM range
CO[C@@H]1[C@H](OC(=O)/C=C/C=C/C=C/C=C/C(=O)O)CC[C@]2(CO2)[C@H]1[C@@]1(C)O[C@@H]1CC=C(C)C [fumagillin] | – | – | IC50 MetAPs [1]: in the nM range
AHHPA-Ala-Leu-Val-Phe-OMe | – | – | IC50 (EcMetAP1): 5 µM
